Laboratory results from article PMC7773843 (Frontiers in Pharmacology, 2020).

What was measured:
[1] = test system: Hela; test: cells; parameters: anti-proliferative / cytotoxicity assay on cell lines, IC50; settings: Homo sapiens, HeLa, read-out: IC50 (µM)
Description: (§1) As shown in SPR and ITC data, the binding affinity of OC to Cath B was weaker than that of OC to HSPA8, justifying our selection of HSPA8 for further studies. To evaluate whether OC potentially binds to HSPA8 in cell lysates, we synthesized OC_biotin ([Wang et al., 2016]; Supplementary Figure S8) and performed a pulldown assay using avidin beads. We first examined whether OC_biotin has the same binding affinity with that of OC to HSPA8 using SPR and ITC assays. […] We then examined the anticancer activities of OC_biotin and OC in several cancer cell lines. As shown in Supplementary Table S4, OC_biotin exerted similar anti-proliferative activity to that of OC in multiple cancer cell lines, with IC50 ranging from 5 to 20 µM. […] By using HeLa cells that stably expressed GFP-LC3, we measured the GFP-LC3 puncta increment upon OC, OC_biotin and Hydroxychloroquine (HCQ) treatment. […] Avidin beads were used to perform the OC_biotin immunoprecipitation assay with cell lysates. Consistent with the SPR and ITC assays, we pulled down HSPA8 using cell lysates.

[2] = test system: HL-7702; test: cells; parameters: anti-proliferative / cytotoxicity assay on cell lines, IC50; settings: Homo sapiens, L02, read-out: IC50 (µM) HL-7702
Description: as §1

[3] = test system: HCT116-DKO; test: cells; parameters: anti-proliferative / cytotoxicity assay on cell lines, IC50; settings: read-out: IC50 (µM)
Description: as §1

[4] = test system: PC-3; test: cells; parameters: anti-proliferative / cytotoxicity assay on cell lines, IC50; settings: Homo sapiens, PC-3, read-out: IC50 (µM)
Description: as §1

[5] = test system: MDA-MB-231; test: cells; parameters: anti-proliferative / cytotoxicity assay on cell lines, IC50; settings: Homo sapiens, MDA-MB-231, read-out: IC50 (µM)
Description: as §1

[6] = test system: PANC-1; test: cells; parameters: anti-proliferative / cytotoxicity assay on cell lines, IC50; settings: Homo sapiens, PANC-1, read-out: IC50 (µM)
Description: as §1

[7] = test system: A549; test: cells; parameters: anti-proliferative / cytotoxicity assay on cell lines, IC50; settings: Homo sapiens, A549, read-out: IC50 (µM)
Description: as §1

[8] = biological target: T1, cathepsin B (Cath B) (Homo sapiens, UniProt P07858); test: ITC (KD […]); SPR KD […]; protease activity IC50 […]; assay type: binding
T1 construct: gene CTSB

[9] = biological target: T2, heat shock 70 kDa protein 8 (HSPA8) (Homo sapiens, UniProt P11142); test: ITC (KD […]); SPR KD […] ([…] also printed); thermal shift lowers Tm by ~[…]°C; assay type: binding
T2 construct: Full-length HSPA8, his-tagged, expressed in E. coli
T2 sequence (P11142 whole entry): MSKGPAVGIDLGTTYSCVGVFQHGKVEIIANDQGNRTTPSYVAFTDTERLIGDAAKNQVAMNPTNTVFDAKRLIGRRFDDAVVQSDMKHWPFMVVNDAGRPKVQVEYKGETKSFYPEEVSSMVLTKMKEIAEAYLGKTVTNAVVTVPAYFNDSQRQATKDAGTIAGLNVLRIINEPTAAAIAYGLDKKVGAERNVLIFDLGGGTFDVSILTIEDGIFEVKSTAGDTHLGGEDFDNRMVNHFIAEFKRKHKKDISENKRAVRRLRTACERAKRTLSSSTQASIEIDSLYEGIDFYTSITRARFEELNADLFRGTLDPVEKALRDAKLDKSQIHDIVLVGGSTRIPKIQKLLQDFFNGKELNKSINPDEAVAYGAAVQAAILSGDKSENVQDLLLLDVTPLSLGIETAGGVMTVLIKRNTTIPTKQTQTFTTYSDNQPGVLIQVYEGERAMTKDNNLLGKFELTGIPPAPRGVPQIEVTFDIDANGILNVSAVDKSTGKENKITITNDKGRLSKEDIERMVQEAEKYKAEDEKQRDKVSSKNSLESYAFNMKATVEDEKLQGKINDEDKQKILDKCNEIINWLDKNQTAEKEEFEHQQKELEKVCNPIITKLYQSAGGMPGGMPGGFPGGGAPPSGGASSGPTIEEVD

Row | Kd [8] [µM] | Kd [9] [µM] | Structure (SMILES) | IC50 [1] [µM] | IC50 [2] [µM] | IC50 [3] [µM] | IC50 [4] [µM] | IC50 [5] [µM] | IC50 [6] [µM] | IC50 [7] [µM]
1 | 25.6 | 6.2 | CC(C)=CCC/C(C)=C/C[C@@H]1C[C@]2(CC=C(C)C)C(=O)[C@@](CC=C(C)C)(C(=O)C(C(=O)c3ccc(O)c(O)c3)=C2O)[C@@]1(C)CCC=C(C)C [OC, Oblongifolin C] | 11 ± 1.2 | 5.16 ± 0.4 | 12.2 ± 0.9 | 10.7 ± 0.6 | 15.9 ± 1.1 | 17.5 ± 0.9 | 7.49 ± 0.9
2 | – | – | COc1cc([C@@H]2c3cc4c(cc3[C@@H](O[C@@H]3O[C@@H]5CO[C@@H](C)O[C@H]5[C@H](O)[C@H]3O)[C@H]3COC(=O)[C@H]23)OCO4)cc(OC)c1O [Etoposide] | – | 1.42 ± 0.2 | – | – | – | 22.7 ± 1.7 | –
